From patent publication US20260325500A1, “METHODS AND COMPOSITIONS FOR TREATING ACUTE STRESS DISORDER” (BioXcel Therapeutics, Inc., priority 2022, published 2026)
“Also recorded” adds a separate entry of the source. Structures can show the parent of a compound that is named as a salt.

Experiments:
[1] = system: rat forced swim test model (depressive-like behavior); assay: Forced swim test in dark phase (Example 4); format: in vivo, Sprague Dawley rats; conditions: i.m.
Source text: Animal groups: Male Sprague Dawley (SD) rats (8-10 weeks old) were grouped housed 2 per cage in standard animal cages with facilities for pelleted food and drinking water in polycarbonate bottle with stainless steel sipper tubes. During the experimental period, animals were housed in a single experimental room. Rats were distributed in 7 different experimental groups with 9-12 rats per group as illustrated in Table 8. Animals were distributed to different groups based on body weight data. Each experimental group was also coded so that the experimenter became unaware of the true experimental group at the time FST trial.
Animals were housed in an environment-controlled room at 22±3° C. and relative humidity of 30 to 70 percent. During the study, 12/12 light/dark cycles were maintained. Lights of the acclimatization area were switched off at 06:00 PM. All experiments were carried out at ambient temperature under dark phase of lighting (between 06:00 PM to 06:00 AM). Adequate fresh air supply of 12-15 air changes/hour was maintained in the experimental room. The maximum and minimum temperature and relative humidity in the experimental rooms was recorded once daily. The relative humidity in the experimental room was calculated daily from dry and wet bulb temperature recordings.
Swim 1 was carried out between 18:30 to 21:30.
Swim 2 was carried out between 19:30 to 21:30. Animals were administered test compounds from 18:30 onwards in staggered manner 60 minutes before FST 2.
Forced swim test was carried out in dark phase
On Day 1, animals were subjected to forced swim test training for 15 minutes (Swim 1) and on Day 2, Swim 2 was carried out post treatment.
On day 2 animals were dosed with respective treatment 60 min prior to performing FST.
Forced swim test (Swim 2) was scored manually with no video recording.
Forced swim test (FST), was used to study the depressive-like behavior in rodents. The test was carried out in transparent cylindrical glass containers measuring 46 cm in height and 20 cm in diameter.
There were 2 swim sessions, 24 h apart. The first session, Swim 1 was the pretest/training stage (15 min) and the second session, Swim 2, was the test stage (8 min).
In swim 2, first 1-minute data was excluded from analysis and rest 7 minutes data was considered. In 7 minutes, data, it was divided 5 minutes and 2 minute.
Twenty-four hours after the start of Swim 1, the test swim (Swim 2) was carried out.
Rat was placed in the water-filled cylinder for 8 min (Swim 2).
The duration of time spent immobile, swimming, and climbing was observed by an observer blind to the treatment group.
Immobility period: A rat was judged to be immobile when it remained floating in the water without struggling and was making only those movements necessary to keep its head above water.
Statistical analysis: One Way ANOVA, Dunnet's multiple comparison test was applied with respect to vehicle saline and Tukey's multiple comparison test was applied to compare the data in between the groups using GraphPad Prism version 9 software.

[2] = system: motor activity (locomotion) and sedation behavior of male Swiss albino mice; assay: Open field test, motor activity (locomotion) and sedation (Example 7); format: in vivo; conditions: i.p.
Description: Rationale: The spontaneous locomotor activity in terms of total distance traveled is measured in open field test. Comparatively lower distance traveled would indicate either less motor activity or sedation.
Animal groups: Swiss albino male mice (6-7 weeks old; 25-40 g weight) were distributed in 10 different experimental groups with 12 […] per group as illustrated in Table
Study drugs: The test substances (Dexmedetomidine hydrochloride and latrepirdine dihydrochloride hydrate) were dissolved in 0.9% normal saline which served as the vehicle.
Study design and dosing: Mice were brought to the laboratory and allowed to acclimatize to the environment for at least 7 days. The open field test was done in lighting conditions of 40 lux light. The mice were dosed as per the grouping in Table 10. After a post dose interval of 60 minutes, 4 mice from a group were placed in the open field and the movement was tracked for a period of 30 minutes. Once the trial was over the mice were removed from the open field and the arena was cleaned. Following this, next set of 4 mice were placed in the arena and tracked.
Statistical analysis: The distance travelled for a period of 30 minutes was analyzed in bins of 5 minutes and was compared with that of the vehicle group using one-way ANOVA followed by Dunnett's test. All statistical analyses were performed using Graph pad prism software package (Version 7 or Higher) and p value below 0.05 was considered as significant.

[3] = system: Yohimbine-induced noradrenergic mediated hyperarousal in Wistar rats; assay: Elevated plus maze, yohimbine-induced noradrenergic mediated hyperarousal (Example 2); format: in vivo; conditions: 10 mg/kg, i.m., 60 min prior; yohimbine 2.5 mg/kg i.p.
Source text: Background: Yohimbine is an alpha 2-adrenergic receptor antagonist reported to trigger panic attacks in healthy volunteers and to exacerbate symptoms in patients with panic disorder (Charney et al., 1992 Acta Psychiatr Scand., Vol. 86 (4): 273-282). Peripheral administration of Yohimbine causes noradrenergic mediated hyperarousal in rats as assessed by the EPM paradigm.
Rationale: The drug yohimbine is a natural product used to test a specific pathway, noradrenergic-mediated hyper-arousal. It is well established that yohimbine is an alpha2-adrenergic receptor antagonist and activates the locus coeruleus (LC) and increases noradrenergic signaling (the opposite of alpha2-adrenergic agonists like dexmedetomidine and clonidine). Increased LC activity and noradrenergic signaling makes animals anxious and agitated which can be measured by using the elevated plus maze. In the elevated plus maze, rodents were in the closed arms and explored the open arms depending on their anxiety and agitation (rats and mice normally explore their environments extensively when calm). […] This behavior is correlated to increased level of anxiety caused by noradrenergic mediated hyperarousal.
Animal groups: Male: Wistar rats were used in this study and were randomly divided to different experimental groups (12 animals per group).
Study drugs: Four test drugs with different mechanisms of action linked to agitation were chosen to find drugs that are effective in reducing yohimbine-induced agitation: (1) Fluvoxamine (selective serotonin reuptake inhibitor) (2) Dextromethorphan (modulator of NMDA signals) (3) Diazepam (modulator of gamma-aminobutyric acid (GABA) as a positive control) and (4) Latrepirdine (complex pharmacology).
The test drugs were procured from Sigma or Tocris. dextromethorphan from Sigma Aldrich, Cat No. D9684; latrepirdine from Sigma Aldrich, Cat No. D6196 or Tocris Cat No. 3201 diazepam and fluvoxamine Sigma Aldrich, Cat No. F2802 or Tocris, Cat No. 1033. All these test drugs were formulated in sufficient quantity in 0.9% saline except for fluvoxamine, which was formulated in 30% ethanol in 0.9% saline.
Apparatus: Elevated Plus Maze (EPM) was used (FIG. 1). The maze consisted of two closed arms and two open arms forming a cross, with a square center platform. All visible surfaces were made of black acrylic. Each arm of the maze was placed on a support column above the floor. Antistatic black vinyl curtains used for surrounding the EPM to make an enclosure.
Study design and dosing: Yohimbine was administered by intraperitoneal injection (i.p.) at a dose of 2.5 mg/kg (30 minutes prior to study) to induce agitation and the effects were assessed 30 minutes after yohimbine injection by measuring the number of open arm entries and exploration time in the EPM. The test drugs fluvoxamine, dextromethorphan and latrepirdine dihydrochloride hydrate were administered through intramuscular route and, diazepam through intraperitoneal route into the hindleg thigh muscle of rats (60 minutes prior to study; 30 minutes prior to yohimbine administration). Diazepam was injected 30 minutes intraperitonially prior to the assay i.e. along with yohimbine administration. The study design is illustrated in FIG. 2 and table 5.
After the test drug administration, the rat was placed on the platform opposite a closed arm. The number of entries and the time spent in each arm were recorded during a 5 min period. The animal was considered as entered in arm when it placed its four paws into the arm.
Statistical analysis: Analysis of variance (ANOVA) was performed on the result data. Fisher's PLSD was used for pairwise comparisons and p value≤0.05 was considered significant.

Compound	climbing time ([1]; 1 μg/kg, versus vehicle saline)	increase in swimming time ([1]; 1 μg/kg, versus vehicle saline)	swimming time ([1]; 5 μg/kg)	immobility time ([1]; 1 and 5 μg/kg, versus vehicle saline)	distance traveled ([2]; 4 μg/kg, 10 μg/kg and 20 μg/kg)	distance traveled ([2]; 30 μg/kg)	reduction of noradrenergic mediated hyperarousal (open arm entries and time spent) [3]
Cc1cccc([C@H](C)c2cnc[nH]2)c1C [dexmedetomidine hydrochloride]	significantly increased	~ 1.6%	significantly increased	significantly decreased	did not show any significant reduction in distance traveled	significant reduction in distance traveled	
COc1ccc2c(c1)[C@]13CCCC[C@@H]1[C@H](C2)N(C)CC3 [dextromethorphan]							ineffective; also recorded: no effect
COCCCC/C(=N\OCCN)c1ccc(C(F)(F)F)cc1 [fluvoxamine]							ineffective; also recorded: no effect
